Patent US20260021197A1, “NANOPARTICLES AND PEPTIDES FOR THE DELIVERY OF CARGOS TO CHONDROCYTES” (4BASEBIO UK LTD, priority 2022, published 2026)

Tests used:
[1] = tested on: primary human chondrocytes; assay: Transfection of primary human chondrocytes, GFP expression by flow cytometry; format: cell-based; settings: closed linear DNA:lipid:peptide nanoparticles, 48 h post-transfection
Method: (§1) Peptides identified via phage display with affinity toward primary human chondrocytes, and peptides identified in the literature with desirable chondrocyte binding characteristics were synthesised via solid-phase peptide synthetic chemistry in various conformations. A sixteen-lysine tail group was attached using standard synthesis methods (amsbio, UK).
Transfections in primary human chondrocyte cells were performed with a range of peptide:liposome:nucleic acid cargo mass ratios and N/P ratios. Transfections were performed in a 96-well plate at a density of 2000 cells per well seeded 5 days prior to transfection. Charge and mass ratio of components in the transfection complex varied; DNA and mRNA were maintained at a constant mass of 300 ng per well. […] The mass ratio of closed linear DNA:lipid and mRNA:lipid was maintained at 1:3, while the chondrocyte-cell binding peptides were in some cases altered.
(§2) Transfection complexes were formed via electrostatic interaction by vigorous pipetting, before diluting in a final volume of 200 ul per well, with a DNA concentration of 1.5 ng/ul. All dilutions were performed with OptiMEM reduced serum media. Controls included cells with no transfection complexes added (OptiMEM only), along with liposomes encapsulating nucleic acid cargo without peptide.
Transfection complexes were incubated for 30 min at RT before adding to cells. All conditions were performed in triplicate. Cells were incubated at 37° C. for 4 hours, before replacing media with growth media. 48 h post-transfection, the cells were rinsed in PBS, before incubation in 0.05% Trypsin EDTA (Gibco) to detach the cells. 48 h post-transfection, cells were resuspended in PBS for analysis by flow cytometry using the Aligent Novocyte flow cytometer.

[2] = tested on: primary human chondrocytes; assay: Transfection of primary human chondrocytes, luciferase expression; format: cell-based; settings: FIG. 3, mRNA:lipid:peptide nanoparticles, DOTMA-DOPE 2:1 + 10% cholesterol, 4 h post-transfection
Method: as §1
Transfections in primary human chondrocyte cells were performed with a range of peptide: liposome:nucleic acid cargo mass ratios and N/P ratios. Transfections were performed in a 96-well plate at a density of 2000 cells per well seeded 5 days prior to transfection. Charge and mass ratio of components in the transfection complex varied; DNA and mRNA were maintained at a constant mass of 300 ng per well. The molar ratio of the cationic lipid DOTMA to the phospholipid DOPE was kept at 2:1 (DD 2:1), while cholesterol was added at a molar percentage of 10% of the total lipid content. The mass ratio of closed linear DNA:lipid and mRNA:lipid was maintained at 1:3, while the chondrocyte-cell binding peptides were in some cases altered.
as §2
Transfection complexes were incubated for 30 min at RT before adding to cells. All conditions were performed in triplicate. Cells were incubated at 37° C. for 4 hours, before replacing media with growth media. 48 h post-transfection for DNA and 4 h post-transfection for RNA, the cells were rinsed in PBS, before resuspension in Reporter Lysis buffer (Promega). Plates were incubated at 4° C. for 20 minutes, before −80° C. for 40 minutes. After thawing, luciferase activity was measured following injection of the luciferase assay substrate on the ClarioSTAR plus plate reader (BMG Labtech, Aylesbury, UK). Luciferase expression was normalised to protein content using Pierce BCA Protein Assay, with absorbance measured at 562 nm. Luciferase activity was expressed as Relative Light Units per mg of protein (RLU/mg).

[3] = Biophysical characterisation of nanoparticles by dynamic light scattering (size, PDI); format: physicochemical
Method: The size in nm by Dynamic Light Scattering (DLS), zeta potential in mV by Electrophoretic Light Scattering (ELS), and concentration of particles per ml by Multi-Angle Dynamic Light Scattering (MADLS) of the closed linear DNA/mRNA-lipid-peptide nanoparticles was determined using the Zetasizer Ultra (Malvern). Complexes were prepared as before, except formulated in nuclease-free water rather than Opti-MEM. Samples containing 0.7 μg hpDNA were diluted in 1 ml for analysis.

[4] = Ribogreen encapsulation efficiency assay; format: physicochemical; settings: FIG. 4; mRNA:lipid:peptide nanoparticles at N/P ratio 3.98
Method: Encapsulation efficiency (EE %) was measured using Quant-iT™ RiboGreen™ RNA Assay Kit (Invitrogen™, Thermo Fisher Scientific, Waltham, MA, USA). Briefly, mRNA was mixed with RiboGreen™ in a total volume of 100 ul TE buffer (10 mM Tris-HCl, 1 mM EDTA, pH 7.5) per well of a 96-well plate and incubated for 10 minutes at RT in the absence of light. Lipid and peptide components were each diluted in a volume of 50 ul TE buffer before mixing thoroughly with the mRNA-Ribogreen via pipette. Nanocomplexes were incubated for 30 minutes at RT in the absence of light. Encapsulation efficiency was measured by quantifying the fluorescence (λem=520 nm, λex=480 nm) of RNA encapsulated in nanoparticles vs. the fluorescence of naked mRNA complexed with Ribogreen™ reagent using a fluorimeter (ClarioStar, BMG Labtech).

[5] = FIG. 1, DOTMA-DOPE 2:1 + 10% cholesterol
[6] = FIG. 5, closed linear DNA, DOTMA-DOPE 2:1 + 10% cholesterol
[7] = FIG. 6, mRNA, DOTMA-DOPE 2:1 + 10% cholesterol

Sequence: KKKKKKKKKKKKKKKKGACDWRVIIPPRPSAC [HC5 C-N]
- GFP expression (% of the cells expressing GFP) [1, 5]: 21%
- median fluorescence intensity (MFI) [1, 5]: 1E+06
- luciferase expression ([2]; N/P ratio 3.48): 3.2E+11 RLU/mg protein
- luciferase expression ([2]; N/P ratio 4.48): 4E+11 RLU/mg protein
- luciferase expression ([2]; N/P ratio 7.48): 3.3E+11 RLU/mg protein
- luciferase expression ([2]; N/P ratio 8.48): 2.5E+11 RLU/mg protein
- average size by DLS [3, 6]: 100 nm

Sequence: KKKKKKKKKKKKKKKKGACHDSQLEALIKFMC [HC4 C-N]
- Polydispersity Index (PDI) [3, 6]: 0.45

Sequence: KKKKKKKKKKKKKKKKGACRLDPTSYLRTFWC [HC3 C-N]
- GFP expression (% of the cells expressing GFP) [1, 5]: 9%
- median fluorescence intensity (MFI) [1, 5]: 1E+05
- average size by DLS [3, 7]: 78 nm
- Polydisperse Index (PDI) ([3]; FIG. 6 passage, printed as closed linear DNA, DOTMA-DOPE 2:1 10% cholesterol): 0.37

Sequence: KKKKKKKKKKKKKKKKGADWRVIIPPRPSA [HC5 L-N]
- encapsulation efficacy (% of mRNA encapsulated) [4]: 96.86%

Sequence: KKKKKKKKKKKKKKKKGAHDSQLEALIKFM [HC4 L-N]
- average size by DLS [3, 7]: 36.65 nm

Sequence: KKKKKKKKKKKKKKKKGARLDPTSYLRTFW [HC3 L-N]
- Polydispersity Index (PDI) [3, 6]: 0.2
- Polydisperse Index (PDI) [3, 7]: 0.13

Sequence: KKKKKKKKKKKKKKKKRVRRCDWRVIIPPRPSAC [HC5 C-C]
- GFP expression (% of the cells expressing GFP) ([1]; FIG. 2, C16-DOPE 2:1 with 10% cholesterol): 24%
- average size by DLS [3, 6]: 51.37 nm
